According to patent US9353082B2, “Pharmaceutical compounds” (BIAL—PORTELA & CA, S.A., priority 2008, dated 2016):
Structures can show the parent of a compound that is named as a salt.

Target: T1, FAAH (Rattus norvegicus, UniProt P97612)
T1 construct: Frozen brains (without cerebellum) from Wistar rats were used; from tissue; host or cells: Wistar rat brain (without cerebellum), washed membrane pellets
T1 sequence (P97612 1-579): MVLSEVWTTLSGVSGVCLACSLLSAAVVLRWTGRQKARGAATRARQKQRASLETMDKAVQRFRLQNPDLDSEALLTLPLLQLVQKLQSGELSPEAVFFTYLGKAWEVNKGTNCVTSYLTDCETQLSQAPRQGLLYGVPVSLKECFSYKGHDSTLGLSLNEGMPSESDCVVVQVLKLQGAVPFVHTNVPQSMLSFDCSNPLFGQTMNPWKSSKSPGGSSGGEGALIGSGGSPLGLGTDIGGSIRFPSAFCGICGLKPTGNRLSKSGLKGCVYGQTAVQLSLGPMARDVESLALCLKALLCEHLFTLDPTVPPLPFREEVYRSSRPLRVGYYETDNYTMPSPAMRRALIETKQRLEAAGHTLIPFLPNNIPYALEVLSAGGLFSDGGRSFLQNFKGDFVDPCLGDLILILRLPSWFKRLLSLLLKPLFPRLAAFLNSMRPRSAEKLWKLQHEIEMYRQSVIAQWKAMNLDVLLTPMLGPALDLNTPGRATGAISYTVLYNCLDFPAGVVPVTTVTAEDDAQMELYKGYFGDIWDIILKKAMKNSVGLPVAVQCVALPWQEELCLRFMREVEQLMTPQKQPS
Test: In vitro FAAH activity in rat brain membranes, 3H-AEA substrate, % of control
Assay type: biochemical, Wistar rats
Conditions: low value = strong inhibitor; for In Vitro FAAH activity, 100 nM: 100 nM test compound
In short: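 Wistar rat brain membranes (5 μg protein) preincubated 15 min at 37 °C with compound at 10 μM or 0.1 μM (0.1% DMSO), then 2 μM AEA including 3H-AEA with 0.1% BSA, Tris pH 7.6, 10 min. 3H-ethanolamine counted after charcoal stop; % of no-compound control after blank subtraction.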

Row | In Vitro FAAH activity, 100 nM | In Vitro FAAH activity, 10 uM (10 uM test compound) | Compound
1 | 34.5 % of control | – | Cc1ccc(OC2CCN(C(=O)n3cnc(-c4ccc(F)cc4F)n3)CC2)cc1 [Compound 134, (3-(2,4-difluorophenyl)-1H-1,2,4-triazol-1-yl)(4-(p-tolyloxy)piperidin-1-yl)methanone]
2 | 0.2 % of control | – | O=C(N1CCN(c2ccc(O)cc2)CC1)n1nnc2ccccc21 [Compound 136, (1H-benzo[d][1,2,3]triazol-1-yl)(4-(4-hydroxyphenyl)piperazin-1-yl)methanone]
3 | 0.1 % of control | – | COc1ccc(OC2CCN(C(=O)n3nnc4ccccc43)CC2)cc1 [Compound 137, (1H-benzo[d][1,2,3]triazol-1-yl)(4-(4-methoxyphenoxy)piperidin-1-yl)methanone]
4 | 83.8 % of control | – | CN(C)C(=O)n1cnc(-c2ccc(N3CCN(c4ccccc4)CC3)cc2)n1 [Compound 138, N,N-dimethyl-3-(4-(4-phenylpiperazin-1-yl)phenyl)-1H-1,2,4-triazole-1-carboxamide]
5 | 58.6 % of control | – | CN(C)C(=O)n1cnc(-c2ccc(Oc3ccc(C#N)cc3)cc2)n1 [Compound 140, 3-(4-(4-cyanophenoxy)phenyl)-N,N-dimethyl-1H-1,2,4-triazole-1-carboxamide]
6 | 15.9 % of control | – | N#Cc1ccc(Oc2ccc(-c3ncn(C(=O)N4CCOCC4)n3)cc2)cc1 [Compound 141, 4-(4-(1-(morpholine-4-carbonyl)-1H-1,2,4-triazol-3-yl)phenoxy)benzonitrile]
7 | 77.1 % of control | – | CN(C)C(=O)n1cnc(-c2ccc(Oc3ccc(C(N)=O)cc3)cc2)n1 [Compound 146, 3-(4-(4-carbamoylphenoxy)phenyl)-N,N-dimethyl-1H-1,2,4-triazole-1-carboxamide]
8 | 49.9 % of control | – | CN(C(=O)n1cnc(-c2ccc(Oc3ccc(C(N)=O)cc3)cc2)n1)c1ccccc1 [Compound 149, 3-(4-(4-carbamoylphenoxy)phenyl)-N-methyl-N-phenyl-1H-1,2,4-triazole-1-carboxamide]
9 | 1.3 % of control | – | CN(C(=O)n1nnc2ccccc21)[C@H]1CC[C@H](OCc2ccccc2)CC1 [Compound 152, N-((1r,4r)-4-(benzyloxy)cyclohexyl)-N-methyl-1H-benzo[d][1,2,3]triazole-1-carboxamide]
10 | 0 % of control | – | COc1cccc(OCC2CCN(C(=O)n3nnc4ccccc43)CC2)c1 [Compound 153, (1H-benzo[d][1,2,3]triazol-1-yl)(4-((3-methoxyphenoxy)methyl)piperidin-1-yl)methanone]
11 | 0.2 % of control | – | O=C(N1CCN(C2CCCC2)CC1)n1nnc2ccccc21 [Compound 154, (1H-benzo[d][1,2,3]triazol-1-yl)(4-cyclopentylpiperazin-1-yl)methanone]
12 | 4.8 % of control | – | O=C(N1CCC(O)CC1)n1nnc2ccccc21 [Compound 159, (1H-benzo[d][1,2,3]triazol-1-yl)(4-hydroxypiperidin-1-yl)methanone]
13 | 18.8 % of control | – | CN(C(=O)n1cnc(Cc2ccccc2)n1)c1ccccc1 [Compound 160, 3-benzyl-N-methyl-N-phenyl-1H-1,2,4-triazole-1-carboxamide]
14 | 93.6 % of control | 3.3 % of control | CC1(C)COCN1C(=O)n1cnc(-c2ccccc2)c1 [Compound 161, (4,4-dimethyloxazolidin-3-yl)(4-phenyl-1H-imidazol-1-yl)methanone]
15 | 0.3 % of control | – | O=C(N1CCC(Oc2ccc(OCc3ccccc3)cc2)CC1)n1nnc2ccccc21 [Compound 164, (1H-benzo[d][1,2,3]triazol-1-yl)(4-(4-(benzyloxy)phenoxy)piperidin-1-yl)methanone]
16 | 0 % of control | – | COc1ccc(OCC2CCN(C(=O)n3nnc4ccccc43)CC2)cc1 [Compound 165, (1H-benzo[d][1,2,3]triazol-1-yl)(4-((4-methoxyphenoxy)methyl)piperidin-1-yl)methanone]
17 | 0 % of control | – | COc1cccc(OC2CCN(C(=O)n3nnc4ccccc43)CC2)c1 [Compound 166, (1H-benzo[d][1,2,3]triazol-1-yl)(4-(3-methoxyphenoxy)piperidin-1-yl)methanone]
18 | 73.6 % of control | – | CON(C)C(=O)n1nnc2ccccc21 [Compound 169, N-methoxy-N-methyl-1H-benzo[d][1,2,3]triazole-1-carboxamide]
19 | 2.1 % of control | – | O=C(N1CCSC1)n1nnc2ccccc21 [Compound 170, (1H-benzo[d][1,2,3]triazol-1-yl)(thiazolidin-3-yl)methanone]
20 | 15.2 % of control | – | O=C(N1CCCCCCC1)n1nnc2ccccc21 [Compound 171, azocan-1-yl(1H-benzo[d][1,2,3]triazol-1-yl)methanone]
21 | 0.3 % of control | – | O=C(N1CCCCCC1)n1nnc2ccccc21 [Compound 172, azepan-1-yl(1H-benzo[d][1,2,3]triazol-1-yl)methanone]
22 | 70.6 % of control | – | C[C@@H]1CCC[C@H](C)N1C(=O)n1nnc2ccccc21 [Compound 173, (1H-benzo[d][1,2,3]triazol-1-yl)((2R,6S)-2,6-dimethylpiperidin-1-yl)methanone]
23 | 0.7 % of control | – | O=C(N1Cc2ccccc2C1)n1nnc2ccccc21 [Compound 174, (1H-benzo[d][1,2,3]triazol-1-yl)(isoindolin-2-yl)methanone]
24 | 21 % of control | – | CC1CC(C)CN(C(=O)n2nnc3ccccc32)C1 (stereo not shown) [Compound 175, (1H-benzo[d][1,2,3]triazol-1-yl)(3,5-dimethylpiperidin-1-yl)methanone]
25 | 0.2 % of control | – | CCOC(=O)C1CCN(C(=O)n2nnc3ccccc32)CC1 [Compound 176, ethyl 1-(1H-benzo[d][1,2,3]triazole-1-carbonyl)piperidine-4-carboxylate]
26 | 6.9 % of control | – | CCOC(=O)N1CCN(C(=O)n2nnc3ccccc32)CC1 [Compound 177, ethyl 4-(1H-benzo[d][1,2,3]triazole-1-carbonyl)piperazine-1-carboxylate]
27 | 94.5 % of control | – | CC(=O)N1CCN(C(=O)n2nnc3ccccc32)CC1 [Compound 178, 1-(4-(1H-benzo[d][1,2,3]triazole-1-carbonyl)piperazin-1-yl)ethanone]
28 | 49 % of control | – | NC(=O)C1CCN(C(=O)n2nnc3ccccc32)CC1 [Compound 179, 1-(1H-benzo[d][1,2,3]triazole-1-carbonyl)piperidine-4-carboxamide]

Row | Compound | In Vitro FAAH activity, 100 nM | In Vitro FAAH activity, 10 uM (10 uM test compound)
29 | O=C(N[C@H]1CN2CCC1CC2)n1nnc2ccccc21 [Compound 142, (R)—N-(quinuclidin-3-yl)-1H-benzo[d][1,2,3]triazole-1-carboxamide hydrochloride] | 101.8 % of control | –
30 | CCCCOc1ccc(OC2CCN(C(=O)n3nnc4ccccc43)CC2)cc1 [Compound 168, (1H-benzo[d][1,2,3]triazol-1-yl)(4-(4-butoxyphenoxy)piperidin-1-yl)methanone] | 0 % of control | –
